From publication PMC6934184, “Selective DNA-PKcs inhibition extends the therapeutic index of localized radiotherapy and chemotherapy” (The Journal of Clinical Investigation, 2019)

Target: T1, CLK2 (Homo sapiens, UniProt P49760)
T1 construct: purchased Thermo Fisher Scientific (Life Technologies) SelectScreen
Test: SelectScreen Z'LYTE
Format: biochemical
Outline: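 Percent values come from Thermo SelectScreen profiling of NU5455, combining activity and binding assays. CSF1R was run in Z'LYTE format at Km app ATP, and CAMK1 in Adapta format with ATP listed at 10.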

T1 sequence (P49760 whole entry): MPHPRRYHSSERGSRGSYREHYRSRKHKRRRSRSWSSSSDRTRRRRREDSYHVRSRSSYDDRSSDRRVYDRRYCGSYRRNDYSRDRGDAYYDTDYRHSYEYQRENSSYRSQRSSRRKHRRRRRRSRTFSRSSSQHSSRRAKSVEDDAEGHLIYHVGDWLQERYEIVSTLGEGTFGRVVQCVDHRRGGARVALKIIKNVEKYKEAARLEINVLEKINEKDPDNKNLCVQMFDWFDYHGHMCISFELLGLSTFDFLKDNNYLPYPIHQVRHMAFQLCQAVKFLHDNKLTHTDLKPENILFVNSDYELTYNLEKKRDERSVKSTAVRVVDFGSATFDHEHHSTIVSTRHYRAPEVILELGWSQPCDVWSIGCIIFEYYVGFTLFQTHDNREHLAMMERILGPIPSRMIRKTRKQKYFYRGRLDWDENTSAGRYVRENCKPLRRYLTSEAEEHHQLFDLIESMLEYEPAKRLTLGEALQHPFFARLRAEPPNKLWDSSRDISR

CN(C(=O)CN1CCOCC1)c1ccc2sc3c(-c4cccc5c(=O)cc(N6CC7CCC(C6)O7)oc45)cccc3c2c1 [NU5455]
inhibition at 1 µM: 4.1%
